# Reference: patent US20230145342A1, “COMBINATORY TREATMENT” (AALTO UNIVERSITY FOUNDATION SR, priority 2020, published 2023)
# Entries after “also recorded” stand apart in the source; their conditions may differ.
# Columns and labels:
# [1] = system: Pseudomonas aeruginosa 5539; test: Resistance profile of strain (Table 3); format: cell-based; conditions: strain 5539
# [2] = system: Pseudomonas aeruginosa 5550; test: Resistance profile of strain (Table 3); format: cell-based; conditions: strain 5550
# Source text: (§1) The effect of P[5]a on the penetration and efficacy of coadministered antibiotics Amikacin (a), Cefepime (b), Ceftazidime (c) and Meropenem (d) in MDR resistant clinical isolates were studied.
# [3] = system: Pseudomonas aeruginosa 2798 (ATCC 2798); test: Resistance profile of strain (Table 3); format: cell-based; conditions: strain 2798 (ATCC 2798)
# Source text: as §1
# [4] = system: Pseudomonas aeruginosa 5542; test: Resistance profile of strain (Table 3); format: cell-based; conditions: strain 5542 P. aeruginosa
# Source text: as §1
# [5] = system: Pseudomonas aeruginosa 5832; test: Resistance profile of strain (Table 3); format: cell-based; conditions: strain 5832
# Source text: as §1
# [6] = system: Pseudomonas aeruginosa 5834; test: Resistance profile of strain (Table 3); format: cell-based; conditions: strain 5834
# Source text: as §1
# [7] = system: MDR-Acinetobacter baumannii 5542; test: Resistance profile of strain (Table 3); format: cell-based; conditions: strain 5542 A. baumannii
# [8] = system: Pseudomonas aeruginosa 5827; test: Resistance profile of strain (Table 3); format: cell-based; conditions: strain 5827
# P. aeruginosa PAO1 = test: Antibiotic resistance buildup, daily MIC over 14 consecutive days; format: cell-based, Pseudomonas aeruginosa; conditions: coadministration of P[5]a with the antibiotic, 14-day period
# Source text: Area below the yellow line means that the bacterium is classified as susceptible to the antibiotic. The area in between yellow and red means that the bacterium is intermediate susceptible to the antibiotic. The area above the red line means that the bacterium is classified as resistant to the antibiotic (According to the “Performance Standards for Antimicrobial Susceptibility Testing”, which is maintained by the Clinical and Laboratory Standards Institute).
# Because of this, a combined administration of P[5]a with a variety of antibiotics was tested. MIC values with two different antibiotics, meropenem and cefepime (FIG. 2) were tested, over a period of 14 consecutive days (which more than surpasses the length of normal treatments, 7-10 days), when administered together with and without 2.5 mM P[5]a.
# In this experiment, the minimum inhibitory concentration MIC was analyzed daily for 14 consecutive days, and the highest MIC values (so the highest concentration of antibiotic where the bacteria still grew) was used for the next day. This way, the buildup of resistance over time can be monitored. In FIG. 2, the area below the yellow line means that the bacterium is classified as susceptible to the antibiotic, the area in between yellow and red means that the bacterium is intermediate susceptible to the antibiotic and the area above the red line means that the bacterium is classified as resistant to the antibiotic (According to the “Performance Standards for Antimicrobial Susceptibility Testing”, which is maintained by the Clinical and Laboratory Standards Institute).
# The effect of P[5]a on encountering resistance development in a pathogenic Gram-negative bacterium, Pserudomonas aeruginosa, strain PA01 was studied over 14-day period. The development of resistance over 14 continuous days by the pathogen PAO1 towards treatment with four clinically relevant antibiotics (meropenem, cefepime, aztreonam and tobramycin) and P[5]a was compared. […] In all antibiotic treatments, reduced susceptibility was observed from day 4 onwards, with complete resistance to all treatments after 12 days.
# The effect of P[5]a on the enhancement of the penetration of coadministered antibiotics having intracellular targets (aztreonam, cefepime, meropenem and tobramycin) was studied over 14-day period in a pathogenic Gram-negative bacterium, Pserudomonas aeruginosa, strain PA01. […] MIC values were categorized in three groups according to the Clinical and Laboratory Standards Institute: susceptible, intermediate susceptible and resistant.
# [9] = Dye displacement (competitive-binding) assay between P[5]a host and HSL guests; conditions: HSL guest titrated against P[5]a host with bound fluorescent dye
# Source text: The addition of a HSL “[…]” displaces the […] from the cavity again, resulting in a shift back to 468 nm.
# To measure the binding affinity between the macrocyclic “Host” P[5]a and different homoserine lactone “guests” a competitive-binding assay was used. In this case, a “guest” HSL solution is titrated against a solution of the P[5]a “host”, which has a fluorescent dye bound in its cavity, […], which has a known affinity for the P[5]a. The ratio of P[5]a to HSL enables calculation of the affinity.
compound,measurement,setting,value
"NCC[C@H](O)C(=O)N[C@@H]1C[C@H](N)[C@@H](O[C@H]2O[C@H](CN)[C@@H](O)[C@H](O)[C@H]2O)[C@H](O)[C@H]1O[C@H]1O[C@H](CO)[C@@H](O)[C@H](N)[C@H]1O [amikacin, Amikacin]",Antibiotic resistance (category),[1],Susceptible
same,"Antibiotic resistance (value given with the category, MIC)",[1],8 µg
same,Antibiotic resistance (category),[2],Intermediate susceptible
same,"Antibiotic resistance (value given with the category, MIC)",[2],32 µg
same,Antibiotic resistance (category),[3],Susceptible
same,Antibiotic resistance (category),[4],intermediate susceptible
same,"Antibiotic resistance (value given with the category, MIC)",[4],16 µg
same,Antibiotic resistance (category),[5],Intermediate susceptible
same,"Antibiotic resistance (value given with the category, MIC)",[5],16 µg
same,Antibiotic resistance (category),[6],intermediate susceptible
same,"Antibiotic resistance (value given with the category, MIC)",[6],16 µg
same,Antibiotic resistance (category),[7],"Resistant to Amikacin, Amoxicillin-clavulanate, Ampicillin,"
same,Antibiotic resistance (category),[8],Intermediate susceptible
same,"Antibiotic resistance (value given with the category, MIC)",[8],32 µg
NC[C@H]1O[C@H](O[C@H]2[C@H](O)[C@@H](O[C@H]3O[C@H](CO)[C@@H](O)[C@H](N)[C@H]3O)[C@H](N)C[C@@H]2N)[C@H](N)C[C@@H]1O [tobramycin],development of resistance by the pathogen to the respective antibiotic,P. aeruginosa PAO1,greatly slowed
same,Antibiotic resistance (category),[1],resistant
same,Antibiotic resistance (category),[7],"Resistant to Amikacin, Amoxicillin-clavulanate, Ampicillin,"
CN(C)c1cc(NC(=O)CNC(C)(C)C)c(O)c2c1C[C@H]1C[C@H]3[C@H](N(C)C)C(O)=C(C(N)=O)C(=O)[C@@]3(O)C(O)=C1C2=O [Tigecycline],Antibiotic resistance (category),[7],"Resistant to Amikacin, Amoxicillin-clavulanate, Ampicillin,"
CC1(C)S[C@@H]2[C@H](NC(=O)[C@H](N)c3ccccc3)C(=O)N2[C@H]1C(=O)O [Ampicillin],Antibiotic resistance (category),[7],"Resistant to Amikacin, Amoxicillin-clavulanate, Ampicillin,"
CCCCCCCCCCCC(O)CC(=O)N[C@@H]1CCOC1=O (stereo partly shown) [3-OH—C14 HSL],displacement of dye from P[5]a cavity (binding affinity),[9],high binding affinity; also recorded: strong displacement
Cc1cc(NS(=O)(=O)c2ccc(N)cc2)no1 [Sulfamethoxazole],Antibiotic resistance (category),[7],"Resistant to Amikacin, Amoxicillin-clavulanate, Ampicillin,"
Colistin,Antibiotic resistance (category),[3],Susceptible
"C[C@@H](O)[C@H]1C(=O)N2C(C(=O)O)=C(S[C@@H]3CN[C@H](C(=O)Nc4cccc(C(=O)O)c4)C3)[C@H](C)[C@H]12 [Ertapenem, ertapenem]",Antibiotic resistance (category),[7],"Resistant to Amikacin, Amoxicillin-clavulanate, Ampicillin,"
"C[C@@H](O)[C@H]1C(=O)N2C(C(=O)O)=C(S[C@@H]3CN[C@H](CNS(N)(=O)=O)C3)[C@H](C)[C@H]12 [Doripenem, doripenem]",Antibiotic resistance (category),[3],"Aztreonam & Cefepime, Resistant to Ceftazidime, Cirpofloxacin,"
Amoxicillin-clavulanate,Antibiotic resistance (category),[7],"Resistant to Amikacin, Amoxicillin-clavulanate, Ampicillin,"
CCCC(=O)CC(=O)N[C@H]1CCOC1=O [3-Oxo-C6],displacement of dye from P[5]a cavity (binding affinity),[9],Poor displacement
CO/N=C(\C(=O)N[C@@H]1C(=O)N2C(C(=O)O)=C(COC(N)=O)CS[C@H]12)c1ccco1 [cefurixome],Antibiotic resistance (category),[1],resistant
"C[C@@H](O)[C@H]1C(=O)N2C(C(=O)O)=C(S[C@@H]3CN[C@H](C(=O)N(C)C)C3)[C@H](C)[C@H]12 [meropenem, Meropenem]",development of resistance by the pathogen to the respective antibiotic,P. aeruginosa PAO1,greatly slowed
same,Antibiotic resistance (category),[1],resistant
same,"Antibiotic resistance (value given with the category, MIC)",[1],8 µg
same,Antibiotic resistance (category),[2],resistant
same,"Antibiotic resistance (value given with the category, MIC)",[2],8 µg
same,Antibiotic resistance (category),[3],"Aztreonam & Cefepime, Resistant to Ceftazidime, Cirpofloxacin,"
same,Antibiotic resistance (category),[4],resistant
same,"Antibiotic resistance (value given with the category, MIC)",[4],8 µg
same,Antibiotic resistance (category),[5],resistant
same,"Antibiotic resistance (value given with the category, MIC)",[5],8 µg
same,Antibiotic resistance (category),[6],resistant
same,"Antibiotic resistance (value given with the category, MIC)",[6],"cefepime 64 ug, ceftazidime 64 ug and meropenem 64 ug"
same,Antibiotic resistance (category),[7],"Resistant to Amikacin, Amoxicillin-clavulanate, Ampicillin,"
same,Antibiotic resistance (category),[8],resistant
same,"Antibiotic resistance (value given with the category, MIC)",[8],16 µg
C[C@H]1[C@H](NC(=O)/C(=N\OC(C)(C)C(=O)O)c2csc(N)n2)C(=O)N1S(=O)(=O)O [aztreonam],development of resistance by the pathogen to the respective antibiotic,P. aeruginosa PAO1,greatly slowed
same,Antibiotic resistance (category),[3],Intermediate susceptible
Piperacillin-tazobactam,Antibiotic resistance (category),[1],resistant
same,Antibiotic resistance (category),[3],"Aztreonam & Cefepime, Resistant to Ceftazidime, Cirpofloxacin,"
same,Antibiotic resistance (category),[7],"Resistant to Amikacin, Amoxicillin-clavulanate, Ampicillin,"
CCCC(=O)N[C@H]1CCOC1=O [C4],displacement of dye from P[5]a cavity (binding affinity),[9],Poor displacement
CCCCCCCCCC(=O)CC(=O)NC1CCOC1=O (stereo not shown) [3-Oxo-C12 HSL],displacement of dye from P[5]a cavity (binding affinity),[9],high binding affinity; also recorded: strong displacement
CCCCCC(=O)CC(=O)N[C@H]1CCOC1=O [3-Oxo-C8 HSL],displacement of dye from P[5]a cavity (binding affinity),[9],Medium displacement
CC1=C(C(=O)O)N2C(=O)[C@@H](NC(=O)[C@H](N)c3ccccc3)[C@H]2SC1 [Cefalexin],Antibiotic resistance (category),[7],"Resistant to Amikacin, Amoxicillin-clavulanate, Ampicillin,"
"CC[C@H]1OC(=O)[C@H](C)[C@@H](O[C@H]2C[C@@](C)(OC)[C@@H](O)[C@H](C)O2)[C@H](C)[C@@H](O[C@@H]2O[C@H](C)C[C@H](N(C)C)[C@H]2O)[C@](C)(O)C[C@@H](C)CN(C)[C@H](C)[C@@H](O)[C@]1(C)O [Azithromycin, azithromycin]",Antibiotic resistance (category),[7],"Resistant to Amikacin, Amoxicillin-clavulanate, Ampicillin,"
